In ChEMBL document CHEMBL1149631, “Synthesis of 3,8,9-trisubstituted-1,7,9-triaza-fluorene-6-carboxylic acid derivatives as a new class of insulin secretagogues” (Bioorg Med Chem, 2007):
Calls of active or inactive are those of the source. No cut-off for these calls is given here.

Key:
[1] = Effect on insulin secretion activity per ug of total protein in rat RIN5F cells at 1 uM after 30 mins; type: functional
[2] = Effect on glucose-dependent insulin secretion activity per ug of total protein in rat RIN5F cells at 0.1 uM after 30 mins; type: functional
[3] = Effect on glucose-dependent insulin secretion activity per ug of total protein in rat RIN5F cells at 1 uM after 30 mins; type: functional
[4] = Effect on insulin secretion activity per ug of total protein in rat RIN5F cells at 0.1 uM after 30 mins; type: functional
[5] = Effect on glucose-dependent insulin secretion activity per ug of total protein in rat RIN5F cells at 10 uM after 30 mins; type: functional
Bos taurus = species: Bos taurus; test: Displacement of [3H]clonidine from I1-imidazoline binding site in bovine adrenal medulla plasma membrane upto 100 uM; type: tissue-based
Oryctolagus cuniculus = species: Oryctolagus cuniculus; test: Displacement of [3H]idazoxan from I2-imidazoline binding site in rabbit kidney membrane upto 100 uM; type: cell membranes
Rattus norvegicus = species: Rattus norvegicus; test: Displacement of [3H]clonidine from alpha2-AR in cerebral cortex of rat brain upto 100 uM; type: tissue-based
[6] = Displacement of [3H]clonidine from I1-imidazoline binding site in bovine adrenal medulla plasma membrane; type: tissue-based, Bos taurus
[7] = Displacement of [3H]idazoxan from I2-imidazoline binding site in rabbit kidney membrane; type: cell membranes, Oryctolagus cuniculus
[8] = Displacement of [3H]clonidine from alpha-2-adrenoceptor in cerebral cortex of rat brain; type: tissue-based

Activity (Bos taurus) | Activity (Oryctolagus cuniculus) | Activity (Rattus norvegicus) | Compound | Activity [1] [pg/µg/h] | Activity [2] [pg/µg/h] | Activity [3] [pg/µg/h] | Activity [4] [pg/µg/h] | Activity [5] [pg/µg/h] | Ki [6] [µM] | Ki [7] [µM] | Ki [8] [µM]
inactive | inactive | inactive | Cc1cnc2c(c1)c1cc(C(=O)O)nc(Cc3ccccc3)c1n2C | – | 20 | 28.1 | – | 38.3 | – | – | –
inactive | inactive | inactive | COC(=O)c1cc2c3cc(C)cnc3n(C)c2c(Cc2ccccc2)n1 | – | 15.9 | 16.1 | – | 16.9 | – | – | –
inactive | inactive | inactive | COC(=O)C1Cc2c(n(C)c3ncc(C)cc23)C(Cc2ccccc2)N1 (stereo not drawn) | – | 15.1 | 15.9 | – | 16.8 | – | – | –

Second part, the molecule before the results:

Compound | Activity (Bos taurus) | Activity (Oryctolagus cuniculus) | Activity (Rattus norvegicus) | Activity [1] [pg/µg/h] | Activity [2] [pg/µg/h] | Activity [3] [pg/µg/h] | Activity [4] [pg/µg/h] | Activity [5] [pg/µg/h] | Ki [6] [µM] | Ki [7] [µM] | Ki [8] [µM]
CCCCNC(=O)NS(=O)(=O)c1ccc(C)cc1 [TOLBUTAMIDE] | – | – | – | 26 | 19.9 | 27.1 | 19.6 | – | – | – | –
Cc1nccc2c1[nH]c1ccccc12 [HARMAN] | – | – | – | – | 20 | 27 | – | 37 | 0.036 | 0.054 | > 12
